pIC50: −log10 of the molar value.
Key:
Rat hepatocyte stability = type: in vitro ADME; settings: rat, pooled rat hepatocytes, 60 minute incubation; for hepatocyte CLint at 1 μM: read-out: Rat Clint (μL/min/million cells); for half-life at 1 μM: read-out: Rat t1/2
Summary of the method: (§1)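 Compounds (1 μM final, 0.1% DMSO, 0.9% acetonitrile) were incubated in duplicate with pooled rat or human hepatocytes at 37° C, sampled at 0–60 min and quenched with methanol. Remaining parent was measured by LC-MS/MS. Elimination rate constant came from the ln(concentration)–time slope, giving t1/2 and CLint scaled to hepatocyte concentration.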

[1] = Human hepatocyte stability; type: in vitro ADME; settings: human, pooled human hepatocytes, human hepatocytes, 1 μM, 60 minute incubation; for hepatocyte CLint at 1 μM: read-out: Human Clint (uL/min/million cells); for half-life at 1 μM: read-out: Human t1/2
Summary of the method: as §1

hERG ion channel = hERG ion channel (Homo sapiens (Human), UniProt Q12809); assay: hERG Ion Channel Assay; type: cell-based; settings: for hERG cardiac safety profile (in words): compared to reference compounds such as ABD599 and ABD899; for pIC50: hERG ion channel activity, hERG-CHO cells
Chain of hERG ion channel (Q12809 whole entry): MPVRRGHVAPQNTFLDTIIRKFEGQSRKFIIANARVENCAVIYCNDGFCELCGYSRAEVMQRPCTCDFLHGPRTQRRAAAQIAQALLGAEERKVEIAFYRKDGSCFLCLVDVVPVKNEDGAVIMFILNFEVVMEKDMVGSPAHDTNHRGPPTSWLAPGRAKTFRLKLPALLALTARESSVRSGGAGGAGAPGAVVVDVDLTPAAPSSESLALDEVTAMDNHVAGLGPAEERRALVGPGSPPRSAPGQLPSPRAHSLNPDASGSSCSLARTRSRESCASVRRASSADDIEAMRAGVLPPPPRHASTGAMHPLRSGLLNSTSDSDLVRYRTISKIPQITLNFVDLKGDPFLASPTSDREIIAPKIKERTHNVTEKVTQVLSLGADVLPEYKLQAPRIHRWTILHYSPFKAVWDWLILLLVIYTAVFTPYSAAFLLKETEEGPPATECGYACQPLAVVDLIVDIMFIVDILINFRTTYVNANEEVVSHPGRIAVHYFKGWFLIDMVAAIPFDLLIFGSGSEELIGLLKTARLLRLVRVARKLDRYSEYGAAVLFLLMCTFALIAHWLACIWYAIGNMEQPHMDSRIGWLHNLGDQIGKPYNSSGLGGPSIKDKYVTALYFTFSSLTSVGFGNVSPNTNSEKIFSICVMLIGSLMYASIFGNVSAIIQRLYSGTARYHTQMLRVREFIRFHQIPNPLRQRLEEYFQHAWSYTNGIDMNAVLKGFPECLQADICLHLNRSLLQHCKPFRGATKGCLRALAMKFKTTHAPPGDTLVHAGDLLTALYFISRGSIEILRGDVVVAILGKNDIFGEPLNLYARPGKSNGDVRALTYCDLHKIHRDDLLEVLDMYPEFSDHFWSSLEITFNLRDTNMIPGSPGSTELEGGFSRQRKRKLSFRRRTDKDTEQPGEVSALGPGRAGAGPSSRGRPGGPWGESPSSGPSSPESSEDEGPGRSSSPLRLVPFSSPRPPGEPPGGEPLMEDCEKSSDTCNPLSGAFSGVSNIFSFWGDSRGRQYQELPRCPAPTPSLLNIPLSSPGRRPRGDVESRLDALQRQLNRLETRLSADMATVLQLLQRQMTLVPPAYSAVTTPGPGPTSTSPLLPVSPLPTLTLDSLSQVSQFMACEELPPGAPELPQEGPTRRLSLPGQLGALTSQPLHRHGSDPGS
Method: When the ability of hERG to conduct electrical current across the cell membrane is inhibited or compromised, it can result in a potentially fatal disorder called long QT syndrome. This association between hERG and long QT syndrome has made hERG inhibition an important anti-target that must be avoided during drug development.
The activity of the compounds against the hERG ion channel was tested using two approaches: a binding assay and an automated patch-clamp, Q-patch method using stably transfected Chinese Hamster Ovary cells (hERG-CHO). hERG-CHO cells were cultured in F-12 Kaighn's Nutrient Mixture medium (Invitrogen)+10% FBS at 37° C. for 1-3 days. Cells were kept at 30° C. for 24 to 48 hours prior to patch clamping in order to increase the hERG current amplitude. Subsequently, the cells were harvested by trypsinisation, and kept in Serum Free Medium (SFM) in the Q-patch cell preparation state for up to 6 hours at room temperature before being washed and re-suspended in extracellular solution and applied to the patch clamp sites for data recording.
Patch-clamp voltage protocol: After whole cell configuration was achieved, the cell was held at −80 mV. A 50 millisecond pulse to −40 mV was delivered to measure the leaking current, which was subtracted from the tail current on-line. Then the cell was depolarized to +20 mV for 2 seconds, followed by a one second pulse to −40 mV to reveal hERG tail current. This paradigm was delivered once every 5 seconds to monitor the current amplitude.
Extracellular solution: 137 mM NaCl, 4 mM KCl, 1.8 mM CaCl2), 1 mM MgCl2, 10 mM D(+)-glucose, 10 mM HEPES buffer (pH adjusted to 7.4 with NaOH).
After the whole cell configuration was achieved, the extracellular solution (control) was applied first and the cell was stabilized for 2 minutes in extracellular solution. The test compound was then applied from low concentrations to high concentrations cumulatively. The cell was incubated with each test concentration for 5 minutes. During each incubation, the cell was repetitively stimulated using the voltage protocol described above, and the tail current amplitude was continuously monitored.
Acceptance Criteria: • (1) Peak tail current >100 pA in control. • (2) Initial run-down <30% and the run-down stops before first application of the test compound. • (3) Leak currents <50% of the control peak tail currents at any time. • (4) rs<20 MΩ throughout the experiment.
The degree of inhibition (%) was obtained by measuring the tail current amplitude, induced by a one second test pulse to −40 mV after a two second pulse to +20 mV, before and after incubation with the test compound. The difference in current was normalized to control and multiplied by 100 in order to obtain the percent inhibition.
Concentration (log) response curves were fitted to a logistic equation (three parameters assuming complete block of the current at very high test compound concentrations) to generate estimates of the 50% inhibitory concentration (IC50). The concentration-response relationship of each compound was constructed from the percentage reductions of current amplitude by sequential concentrations.

CYP2C9 = CYP2C9 (Homo sapiens (Human), UniProt P11712); assay: Human Cytochrome P450 Inhibition Assay (Bactosomes); type: in vitro ADME; settings: recombinant Bactosomes, 10 minutes, 37° C.
Chain of CYP2C9 (P11712 whole entry): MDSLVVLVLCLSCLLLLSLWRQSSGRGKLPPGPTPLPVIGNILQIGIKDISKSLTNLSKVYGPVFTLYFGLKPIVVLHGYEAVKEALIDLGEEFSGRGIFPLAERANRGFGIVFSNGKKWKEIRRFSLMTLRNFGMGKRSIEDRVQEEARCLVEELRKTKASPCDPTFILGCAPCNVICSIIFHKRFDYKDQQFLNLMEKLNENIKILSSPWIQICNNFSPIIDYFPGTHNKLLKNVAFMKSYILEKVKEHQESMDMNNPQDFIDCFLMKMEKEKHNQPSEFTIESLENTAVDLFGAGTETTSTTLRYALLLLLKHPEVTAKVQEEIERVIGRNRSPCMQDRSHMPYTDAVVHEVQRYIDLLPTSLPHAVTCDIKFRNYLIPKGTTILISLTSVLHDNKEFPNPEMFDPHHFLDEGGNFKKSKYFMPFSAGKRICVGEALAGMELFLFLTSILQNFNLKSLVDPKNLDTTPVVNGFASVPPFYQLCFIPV

CYP3A4 = CYP3A4 (Homo sapiens (Human), UniProt P08684); assay: as above; type: in vitro ADME; settings: recombinant Bactosomes, 10 minutes, 37° C.
Chain of CYP3A4 (P08684 whole entry): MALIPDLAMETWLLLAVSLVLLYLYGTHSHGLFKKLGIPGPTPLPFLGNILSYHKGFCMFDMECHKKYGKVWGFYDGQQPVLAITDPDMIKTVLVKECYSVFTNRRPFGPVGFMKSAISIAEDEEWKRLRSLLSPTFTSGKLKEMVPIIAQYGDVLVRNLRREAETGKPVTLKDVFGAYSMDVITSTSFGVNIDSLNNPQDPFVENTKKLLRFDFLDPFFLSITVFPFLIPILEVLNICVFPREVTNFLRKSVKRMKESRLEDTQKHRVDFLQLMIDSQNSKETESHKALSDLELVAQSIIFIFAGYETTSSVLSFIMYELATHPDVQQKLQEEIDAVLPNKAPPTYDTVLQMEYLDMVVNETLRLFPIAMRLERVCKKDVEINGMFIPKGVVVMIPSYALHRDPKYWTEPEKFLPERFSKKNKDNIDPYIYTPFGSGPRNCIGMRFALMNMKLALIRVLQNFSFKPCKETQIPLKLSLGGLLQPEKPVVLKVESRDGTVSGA

C[C@]1(O)CC[C@@H](CS(=O)(=O)c2ccc(-c3ncc(F)cc3F)c(F)c2)CC1 [CHMSA-03-A, cis-4-(((4-(3,5-difluoropyridin-2-yl)-3-fluorophenyl)sulfonyl)methyl)-1-methylcyclohexan-1-ol]
hepatocyte CLint at 1 μM (Rat hepatocyte stability): 14.4 µL/min/1e6 cells
half-life at 1 μM (Rat hepatocyte stability): 91.2 min
hepatocyte CLint at 1 μM [1]: < 3 µL/min/1e6 cells
half-life at 1 μM [1]: > 460 min
hERG cardiac safety profile (in words) (hERG ion channel): particularly positive profile
pIC50 (hERG ion channel): < 4.00
pIC50 (CYP2C9): 4.83
pIC50 (CYP3A4): < 4.30

C[C@]1(O)CC[C@@H](CS(=O)(=O)c2ccc(-c3ccc(C#N)cc3F)cc2)CC1 [CHMSA-01-A, 2-fluoro-4′-(((cis-4-hydroxy-4-methylcyclohexyl)methyl)sulfonyl)-[1,1′-biphenyl]-4-carbonitrile]
hepatocyte CLint at 1 μM (Rat hepatocyte stability): 12.4 µL/min/1e6 cells
half-life at 1 μM (Rat hepatocyte stability): 106 min
hepatocyte CLint at 1 μM [1]: 3.7 µL/min/1e6 cells
half-life at 1 μM [1]: 355 min
pIC50 (hERG ion channel): 4.62
pIC50 (CYP2C9): 4.40
pIC50 (CYP3A4): < 4.30

C[C@]1(O)CC[C@@H](CS(=O)(=O)c2ccc(-c3ccc(C#N)cc3F)cc2C(F)(F)F)CC1 [CHMSA-02-A, 2-fluoro-4′-(((cis-4-hydroxy-4-methylcyclohexyl)methyl)sulfonyl)-3′-(trifluoromethyl)-[1,1′-biphenyl]-4-carbonitrile]
hepatocyte CLint at 1 μM (Rat hepatocyte stability): 102 µL/min/1e6 cells
half-life at 1 μM (Rat hepatocyte stability): 13 min
hepatocyte CLint at 1 μM [1]: < 3.3 µL/min/1e6 cells
half-life at 1 μM [1]: > 412 min
hERG cardiac safety profile (in words) (hERG ion channel): particularly positive profile
pIC50 (hERG ion channel): < 4.00
pIC50 (CYP2C9): < 4.30
pIC50 (CYP3A4): < 4.30

C[C@]1(O)CC[C@H](NS(=O)(=O)c2ccc(-c3ccc(Cl)cc3C#N)cc2)CC1 [HMC-C-01-A, reference compound]
hepatocyte CLint at 1 μM (Rat hepatocyte stability): 188 µL/min/1e6 cells
half-life at 1 μM (Rat hepatocyte stability): 7 min
hepatocyte CLint at 1 μM [1]: 7.6 µL/min/1e6 cells
half-life at 1 μM [1]: 154 min
pIC50 (CYP2C9): 4.68
pIC50 (CYP3A4): < 4.60
